Data taken from patent US20220088195A1, “Prevention or mitigation of T-cell bispecific antibody-related adverse effects” (Hoffmann-La Roche Inc., priority 2020, published 2022).

Experiments:
[1] = test system: MKN45 NLR target cells; assay: Reversibility killing assay with two and three stimulations (OFF/ON, ON/OFF/ON), MKN45 NLR + CEA-TCB, Incucyte; type: cell-based, human
Method: FIG. 16. In vitro killing assay set-up and timelines. PBMCs were stimulated on MKN45 NLR (E:T=10:1) target cells with 1 nM CEA-TCB for 96 hours. Activated PBMCs were washed and restimulated on new MKN45 NLR target cells (E:T=10:1) with 1 nM CEA-TCB in the presence of 25 nM dasatinib for 72 hours. Activated PBMCs were washed to remove dasatinib and restimulated on new MKN45 NLR target cells (E:T=10:1) with 1 nM CEA-TCB (“ON/OFF/ON”, see upper row of table), or vice versa (“OFF/ON/OFF”, see lower row of table). Killing was followed by Incucyte®.
FIG. 17. Real time killing of MKN45 NLR target cells by CEA-TCB in the presence of 25 nM dasatinib (0-72 h) upon first stimulation and in the absence of 25 nM dasatinib (96-170 h) upon restimulation, in the assay of FIG. 16 (“OFF/ON”).
FIG. 19. Real time killing of MKN45 NLR target cells by CEA-TCB in the assay of FIG. 16 (“ON/OFF/ON”).
FIG. 21. CEA-TCB mediated target cell killing. (A) PBMCs were stimulated on MKN45 NLR (E:T=10:1) target cells with 1 nM CEA-TCB for 96 hours in the presence and absence of dasatinib. (B) Activated PBMCs were washed to remove dasatinib and restimulated on new MKN45 NLR target cells (E:T=10:1) with 1 nM CEA-TCB. Killing was followed by Incucyte®.
We then verified if dasatinib's effect is reversible upon its removal. Therefore we set-up a killing assay with two and three stimulations in the presence and absence of dasatinib and followed the killing kinetics using an Incucyte® system (FIG. 16). After each stimulation, effector cells were washed and re-stimulated on fresh MKN45 NLR target cells with 1 nM CEA TCB in the presence and absence of dasatinib allowing to mimic OFF/ON switch and ON/OFF/ON switch.
Lastly, we evaluated if the effect of dasatinib was reversible on activated T cells. Consequently, we supplemented the media with 25 nM dasatinib upon the second stimulation with 1 nM CEA-TCB to prevent killing from activated T cells and then removed the dasatinib upon third stimulation with 1 nM CEA-TCB to verify if killing would be restored. […] We concluded that the effect of dasatinib in the prevention of T cell activation and cytotoxicity is reversible.
For T-cell engaging antibodies, cytokine release peaks are higher upon the first treatment than after subsequent treatments. We were curious to see if low doses of dasatinib could prevent cytokine release while minimally affecting TCB-efficacy upon first stimulation. In killing assays as described in FIG. 16, the cytokine levels upon first treatment with 1 nM CEA-TCB in the presence of 6.25 nM and 12.5 nM dasatinib and upon second treatment with 1 nM CEA-TCB in the absence of dasatinib were measured in the supernatants. […] Its removal upon second stimulation may also balance the cytokine release and restore TCB-induced cytotoxicity due to the reversibility properties of dasatinib.

[2] = test system: CD20+ B cells; assay: CD19-TCB dependent B cell depletion in blood of humanized NSG mice; type: in vivo; details: 0.5 mg/kg CD19-TCB i.v. + 50 mg/kg dasatinib p.o. twice per day
Method: FIG. 32. Timelines and dosing schedule of in vivo experiment assessing effect of dasatinib (50 mg/kg) on CD19-TCB induced cytokine release and B cell depletion in humanized NSG mice. Humanized NSG mice were co-treated with 0.5 mg/kg CD19-TCB (i.v.) and 50 mg/kg dasatinib (p.o.) twice per day. Blood was collected by tail vein bleeding at 1.5 hrs, 6 hrs and 48 hrs after treatment with CD19-TCB. At 72 hrs, blood was collected retro-orbitally, before the termination of the experiment. N=4 mice per group.
FIG. 33. […] Representative flow cytometry dot plots of CD20+ B cells gated among human CD45+ cells in the blood (48 hrs) of animals treated with vehicle (A), 0.5 mg/kg CD19-TCB (B), or 0.5 mg/kg CD19-TCB and 50 mg/kg dasatinib (C).
FIG. 34. […] CD20+ B cell count was measured by flow cytometry in the blood of the animals from the experiment described in FIG. 32 at 48 hrs (A) and 72 hrs (B). Mean of n=4 mice+/−SEM. One way ANOVA, Kruskal Wallis test, p-value: 0.1234 (ns), 0.0332 (*), 0.0021 (**), 0.0001 (***), <0.0001 (****).
To verify whether dasatinib can prevent CD19-TCB-induced B cell depletion and cytokine release in vivo, humanized NSG mice were either treated with 0.5 mg/kg CD19-TCB or co-treated with 0.5 mg/kg CD19-TCB and 50 mg/kg dasatinib as illustrated in FIG. 32. To best mimick the pharmacodynamic profile of dasatinib in the clinic and to verify whether the resulting exposure would be sufficient to prevent CD19-TCB-induced T cell cytotoxicity and cytokine release, dasatinib was given per os twice per day.
At 48 hrs and 72 hrs, mice were bled and the CD20+ B cell count was measured by flow cytometry (FIG. 33). […] The half-life of dasatinib in blood of mice being around 6 hrs, the exposure of dasatinib was probably not sufficient to durably prevent CD19-TCB-induced T cell cytotoxicity, leading to partial activity of CD19-TCB.

[3] = 146 patients, 100 mg dasatinib QD; cited from earlier work

## Cc1nc(Nc2ncc(C(=O)Nc3c(C)cccc3Cl)s2)cc(N2CCN(CCO)CC2)n1 [dasatinib, N-(2-chloro-6-methylphenyl)-2-[[6-[4-(2-hydroxyethyl)-1-piperazinyl]-2-methyl-4-pyrimidinyl]amino]-5-thiazole carboxamide monohydrate]
[1]; 6.25 nM and 12.5 nM dasatinib
  killing induced by 1 nM CEA-TCB during first stimulation: only partially inhibited the killing
[1]; 25 nM dasatinib during first stimulation, removed for second, 1 nM CEA TCB
  killing of MKN45 NLR target cells (OFF/ON): killing inhibition which was then reversed upon dasatinib removal
[1]; 25 nM dasatinib upon second stimulation, removed upon third, 1 nM CEA-TCB
  killing of MKN45 cells (ON/OFF/ON): inhibited with the addition of 25 nM upon second stimulation and restored upon third stimulation
[1]; after 6.25 nM and 12.5 nM dasatinib in first stimulation
  killing upon removal of dasatinib during second stimulation: killing was restored
[2]; 48 hrs, listed as Dasatinib, monohydrate
  killing of CD20+ B cells by CD19-TCB (B cell count in blood): prevents CD19-TCB dependent B cell depletion until 48 hrs post treatment
[2]; 48 hrs, monohydrate
  killing of CD20+ B cells by CD19-TCB (B cell count in blood): prevented killing
[2]; 72 hrs
  killing of CD20+ B cells by CD19-TCB (B cell count in blood): partially restored
[3]
  Cmax: 54.6 ng/mL
  Cmin: 2.61 ng/mL
